These results are taken from patent US8026233B2, “P38 inhibitors and methods of use thereof” (Array BioPharma Inc., priority 2006, dated 2011).

Common to all, as to settings: stated in words only
One series in a line: bioavailability. The class given is in vivo.
Another series in a line: first pass metabolism.
The target of series [1] is p-glycoprotein (PGP) transporter (Homo sapiens, UniProt P08183). Description: affinity for p-glycoprotein transporter.
A further series addresses hERG channel (Homo sapiens, UniProt Q12809). Put plainly: activity in the hERG channel.

hERG channel, sequence (Q12809 whole entry): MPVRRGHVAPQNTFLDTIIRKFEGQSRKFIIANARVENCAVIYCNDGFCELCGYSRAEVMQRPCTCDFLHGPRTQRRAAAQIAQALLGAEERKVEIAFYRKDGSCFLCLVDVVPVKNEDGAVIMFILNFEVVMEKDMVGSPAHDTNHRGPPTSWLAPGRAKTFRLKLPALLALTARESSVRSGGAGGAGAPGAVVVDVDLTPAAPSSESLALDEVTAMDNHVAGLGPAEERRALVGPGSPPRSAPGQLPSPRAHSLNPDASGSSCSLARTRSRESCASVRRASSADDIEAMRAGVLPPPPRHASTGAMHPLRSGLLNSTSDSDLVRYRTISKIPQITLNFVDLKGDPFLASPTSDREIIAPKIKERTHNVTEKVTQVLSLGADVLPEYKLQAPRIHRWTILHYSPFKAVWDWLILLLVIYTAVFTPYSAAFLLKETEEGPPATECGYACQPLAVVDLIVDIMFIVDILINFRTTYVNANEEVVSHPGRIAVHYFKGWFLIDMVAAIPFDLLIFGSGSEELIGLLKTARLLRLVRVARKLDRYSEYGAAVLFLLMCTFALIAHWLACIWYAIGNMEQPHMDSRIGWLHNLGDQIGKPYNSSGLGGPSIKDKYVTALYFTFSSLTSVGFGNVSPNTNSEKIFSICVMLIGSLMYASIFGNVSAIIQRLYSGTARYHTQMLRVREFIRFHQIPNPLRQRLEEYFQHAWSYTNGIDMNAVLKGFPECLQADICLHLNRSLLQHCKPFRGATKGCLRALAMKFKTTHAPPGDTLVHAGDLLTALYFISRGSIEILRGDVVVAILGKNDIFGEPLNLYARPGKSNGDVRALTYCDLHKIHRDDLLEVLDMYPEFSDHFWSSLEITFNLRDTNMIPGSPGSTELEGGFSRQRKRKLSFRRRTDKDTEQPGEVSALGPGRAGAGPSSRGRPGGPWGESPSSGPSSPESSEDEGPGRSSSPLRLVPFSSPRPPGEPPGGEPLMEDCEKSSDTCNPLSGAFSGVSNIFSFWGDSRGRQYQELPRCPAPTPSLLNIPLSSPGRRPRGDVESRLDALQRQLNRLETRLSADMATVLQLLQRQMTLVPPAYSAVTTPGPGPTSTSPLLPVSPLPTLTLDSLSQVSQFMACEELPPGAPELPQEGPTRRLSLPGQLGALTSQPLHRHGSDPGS
p-glycoprotein (PGP) transporter, sequence (P08183 whole entry): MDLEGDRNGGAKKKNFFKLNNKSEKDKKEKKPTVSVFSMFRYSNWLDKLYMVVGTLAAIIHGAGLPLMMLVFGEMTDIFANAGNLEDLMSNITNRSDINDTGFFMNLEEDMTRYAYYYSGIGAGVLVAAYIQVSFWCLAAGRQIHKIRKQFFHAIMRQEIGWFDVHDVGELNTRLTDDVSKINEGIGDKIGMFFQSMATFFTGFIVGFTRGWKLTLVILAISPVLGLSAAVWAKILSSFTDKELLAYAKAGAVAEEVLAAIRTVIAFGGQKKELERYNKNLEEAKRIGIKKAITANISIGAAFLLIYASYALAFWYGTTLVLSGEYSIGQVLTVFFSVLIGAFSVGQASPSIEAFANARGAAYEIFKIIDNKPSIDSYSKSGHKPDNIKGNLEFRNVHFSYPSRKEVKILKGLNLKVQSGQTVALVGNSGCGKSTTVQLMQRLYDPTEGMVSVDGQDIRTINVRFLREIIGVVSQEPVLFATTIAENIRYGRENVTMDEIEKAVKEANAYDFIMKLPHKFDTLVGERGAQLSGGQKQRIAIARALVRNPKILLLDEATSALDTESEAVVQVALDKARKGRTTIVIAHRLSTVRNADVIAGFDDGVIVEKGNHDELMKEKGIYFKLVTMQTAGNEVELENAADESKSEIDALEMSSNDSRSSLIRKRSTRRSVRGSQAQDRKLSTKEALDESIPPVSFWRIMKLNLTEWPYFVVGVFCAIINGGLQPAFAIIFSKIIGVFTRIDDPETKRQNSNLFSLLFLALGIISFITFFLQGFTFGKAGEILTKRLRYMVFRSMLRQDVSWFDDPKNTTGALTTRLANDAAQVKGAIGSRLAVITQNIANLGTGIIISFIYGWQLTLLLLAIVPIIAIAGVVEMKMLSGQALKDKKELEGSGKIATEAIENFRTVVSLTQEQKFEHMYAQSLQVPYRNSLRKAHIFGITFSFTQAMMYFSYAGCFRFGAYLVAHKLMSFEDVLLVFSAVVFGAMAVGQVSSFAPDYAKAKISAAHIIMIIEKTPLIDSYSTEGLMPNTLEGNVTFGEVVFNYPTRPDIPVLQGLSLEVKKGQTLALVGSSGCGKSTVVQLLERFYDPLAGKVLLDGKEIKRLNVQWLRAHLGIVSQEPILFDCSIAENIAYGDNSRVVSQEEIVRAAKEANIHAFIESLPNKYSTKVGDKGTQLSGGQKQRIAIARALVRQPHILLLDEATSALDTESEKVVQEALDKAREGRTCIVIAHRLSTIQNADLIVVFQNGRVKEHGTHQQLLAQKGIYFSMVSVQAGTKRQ

`CC(C)(F)Cn1ncc2cc(Oc3ccc(F)cc3F)c(C(=O)N[C@H]3CCNC3=O)cc21` [Example 27, (S)-5-(2,4-difluorophenoxy)-1-(2-fluoro-2-methylpropyl)-N-(2-oxopyrrolidin-3-yl)-1H-indazole-6-carboxamide]: the bioavailability result in the series “bioavailability” is recorded as “relatively good”. Also, the first pass metabolism entry in the series “first pass metabolism” was “relatively low”. Moreover, in series [1], the “affinity for p-glycoprotein (PGP) transporter (which affects cell permeability)” value is listed as “low affinity”. At hERG channel, the “activity in the hERG channel (a predictor for cardiac side effects)” value is reported as “low activity”.
